Data set [1] in a line: Pharmacokinetics in dogs. The class given is in vivo, Male Beagle dogs. The following applies: for Cmax / Tmax: male, Beagle, dog, plasma, po. On the procedure: Male Beagle dogs (n=6) between the ages of 2-5 and weighing 6-12 kg were dosed with capsules followed by 50 mL of water. […] The dogs were either fasted or fed just prior to dosing with 14 g of dry dog food and 8 gm olive oil. The same set of dogs were used for all formulations, except where indicated. […]
Unless otherwise indicated, results are for the fasted state. Miglyol® softgels have a very low fasted exposure and thus a high food effect. The fasted exposure is higher than that for crystalline suspension, while the fed exposure using this high oil meal is the same. Thus Miglyol softgels provide a lower food effect than crystalline drug. At the same dose of 90 mgA, formulations such as A, O, and C that include surfactants and cosolvent have much higher fasted exposures and only a ca. 3× food effect. The fed exposures are also higher than for Miglyol® 812 softgels and crystalline drug. Poorer fasted exposure was obtained for Formulation WW, which contains a high level of ethyl lactate as a cosolvent.

A short description of data set [2]: Emulsion from oil solution plus equal volume of water: particle size and stability. The class given is physicochemical. Here is the method: An emulsion was prepared by combining 1 volume of oil solution with an equal volume of de-ionized water. […] The emulsion is then stirred continuously to maintain homogeneity.
An emulsion was prepared by combining 1 volume of oil solution with an equal volume of de-ionized water. This mixture was stirred for 10 minutes and then vortex mixed for 2 minutes. […] It was stirred continuously to maintain homogeneity.
An emulsion was prepared by combining combining 1 volume of oil solution with an equal volume of de-ionized water. This mixture was stirred for 10 minutes and then vortex mixed for 2 minutes. […] It was stirred continuously to maintain homogeneity.

Data set [3] in a line: Extent of emulsification, droplet size by optical microscope. The class given is physicochemical. Here is the method: The extent of emulsification was determined by mixing the preconcentrate and water in a ratio of 1:100 and 1:10 by gentle inversion (5×), visual inspection, and examination under an optical microscope, using a polarizing filter to check for the appearance of crystals. Droplet size determined by this approach is expressed as the upper limit for the average droplet size, since submicron droplets cannot be detected by this method.

A short description of data set [4]: Equilibrium solubility in excipients, vehicles and emulsion preconcentrates. The format is physicochemical. On the procedure: The solubility of CETP inhibitors in excipients and in formulations was determined by adding an excess of compound to the medium in question. The mixture was agitated by rotation over a period of days at ambient temperature until the concentration in solution had reached an equilibrium as judged by similar measurements for consecutive time points. Concentrations were measured by filtration of aliquots with a PTFE syringe filter and assay by HPLC as described in Example 11.
The solubility of crystalline CETP inhibitors in representative vehicles was determined by adding an excess of compound to the vehicle in question. The mixture was agitated by rotation over a period of days at ambient temperature until the concentration in solution had reached equilibrium as judged by similar measurements for consecutive time points. Concentrations were measured by filtration of aliquots with a PTFE syringe filter and assayed by HPLC.
The concentrations of CETP inhibitor in each vehicle were assayed at intervals by dilution of aliquots into acetonitrile and gradient HPLC analysis on a Water Symmetry C-8 column (3.9×150 mm, 5 micron) at 30° C. at a flow rate of 1 mL/min. […] The detection method was UV absorbance at 210 nm.

Data set [5] in a line: Dynamic light scattering particle size analysis of emulsions. The class given is physicochemical. On the procedure: Preliminary particle size analysis data has been obtained on selected formulations using a dynamic light scattering particle size analyzer (ZetaPals, Brookhaven Instruments, Inc.) for measurement of sub-micron particle distribution. The formulation solutions were diluted 1:100 in HPLC-grade water (previously filtered through a 0.22 μm syringe filter). The resulting mixture was gently inverted five times to create the emulsion. Each emulsion sample was then analyzed at a temperature of 37° C. Triplicate measurements were made at each time point (0, 30 min).

Data set [6] can be described thus: Microsolubility estimate by repeated addition of vehicle. The class given is physicochemical. Here is the method: For CETP inhibitors where quantities were limited, an estimate of solubility was obtained by addition of vehicle to a known quantity of the compound and mixing in an ultrasonicator bath for 90 minutes, followed by overnight equilibration at ambient temperature. Addition of vehicle was repeated until a solution was achieved.
For CETP inhibitors where quantities were limited or the samples were amorphous solids, an estimate of solubility was obtained by addition of vehicle to a known quantity of the compound and mixing in an ultrasonicator bath for 90 minutes, followed by overnight equilibration at ambient temperature. Addition of vehicle was repeated until a solution was achieved. From the total volume of vehicle added to solubilize the CETP inhibitor compound, the solubility value, or so-called microsolubility, was calculated by the equation: Weight of sample (mgA)/vehicle volume (mL)=Microsolubility (mgA/mL)

Where [7] appears, read: 60 mg, fasted, Miglyol 812/Triacetin/Polysorbate 80/Capmul MCM (22/27/20/31).
Where [8] appears, read: preconcentrate Miglyol 812/Triacetin/Polysorbate 80/Capmul MCM 22/27/20/31 % v/v.
Setting [9] is: equilibrium, vehicle Miglyol 812.
The mark [10] stands for this setting: equilibrium, vehicle Miglyol 812/propylene carbonate/Cremophor EL (60/20/20).
The mark [11] stands for this setting: 90 mg, Fed, Miglyol 812/Triacetin/Cremophor RH40/Capmul MCM (20/30/20/30).
Setting [12] is: 90 mg, fasted, Miglyol 812/Triacetin/Cremophor RH40/Capmul MCM (20/30/20/30).

The structures appear in SMILES notation.

Broadly, the Cmax is the maximum level reached in the sampled fluid or tissue. As a reminder, the Tmax is the time from dosing to the highest level. For `CC[C@@H]1C[C@H](N(Cc2cc(C(F)(F)F)cc(C(F)(F)F)c2)C(=O)OC)c2cc(C(F)(F)F)ccc2N1C(=O)OC(C)C` [Compound E, [2R,4S] 4-[(3,5-Bis-trifluoromethyl-benzyl)-methoxycarbonyl-amino]-2-ethyl-6-trifluoromethyl-3,4-dihydro-2H-quinoline-1-carboxylic acid isopropyl ester], the “AUG 0-tlast” value in data set [1] (fasted, 60 mg, 100 mg/mL in Miglyol 812/Triacetin/Polysorbate 80/Capmul MCM (22/27/20/31), Tlast 48 hr) was found to be 2900 ± 670 ng·h/mL. The compound further displayed a Cmax in data set [1] (setting [7]) of 200 ± 140 ng/mL. In data set [1] (setting [7]), the Tmax was 1.5 h. Also, the “chemical degradation or crystallization” value in data set [2] (Example 15 oil or emulsion after storage for 24 hr, HPLC, microscopy) is “No chemical degradation based on HPLC analysis or crystallization based on microscopic examination was detected”. The “average particle size of emulsion” value in data set [2] (Example 15 oil solution (Miglyol 812/propylene carbonate/Cremophor EL, 275 mg/g) plus equal volume water) is on record as “less than 10 microns”. Also, the “Ave Droplet Size (1:100 dilution)” value in data set [3] (setting [8]) is less than 2 μ. In addition, the Solubility in data set [4] (setting [9]) was 167 mgA/ml; in data set [4] (setting [10]) it was 394 mgA/ml; in data set [4] (equilibrium, vehicle Olive oil), 39 mgA/ml; in data set [4] (setting [8]), 308 mgA/mL. Moreover, the “Mean Diam.” value in data set [5] (30 min., 100 mg/mL in Miglyol 812/Triacetin/Polysorbate 80/Capmul MCM (22/27/20/31)) was found to be 175 nm; in data set [5] (30 min., 200 mg/mL in Miglyol 812/Triacetin/Polysorbate 80/Capmul MCM (22/27/20/31)), 251 ± 45 nm; in data set [5] (Initial, 100 mg/mL in Miglyol 812/Triacetin/Polysorbate 80/Capmul MCM (22/27/20/31)), 181 nm; in data set [5] (Initial, 200 mg/mL in Miglyol 812/Triacetin/Polysorbate 80/Capmul MCM (22/27/20/31)), 239 ± 17 nm.
As for `CC[C@@H]1C[C@H](N(Cc2cc(C(F)(F)F)cc(C(F)(F)F)c2)C(C)=O)c2cc(C(F)(F)F)ccc2N1C(=O)OC(C)C` [Compound D, [2R,4S] 4-[acetyl-(3,5-bis-trifluoromethyl-benzyl)-amino]-2-ethyl-6-trifluoromethyl-3,4-dihydro-2H-quinoline-1-carboxylic acid isopropyl ester], the “AUG 0-tlast” value in data set [1] (Fed, 90 mg, Miglyol 812/Triacetin/Cremophor RH40/Capmul MCM (20/30/20/30), Tlast 24 hr) came to 4840 ± 1230 ng·h/mL; in data set [1] (fasted, 90 mg, 100 mg/mL in Miglyol 812/Triacetin/Cremophor RH40/Capmul MCM (20/30/20/30), Tlast 24 hr) it was 3450 ± 960 ng·h/mL. The Cmax in data set [1] (setting [11]) was 1200 ± 410 ng/mL; in data set [1] (setting [12]) it was 860 ± 310 ng/mL. Also, the Tmax was 1.5 h in data set [1] (setting [11]) and 1.7 h in data set [1] (setting [12]). The “chemical degradation or crystallization” value in data set [2] (Example 19 oil after storage for 8 days or emulsion after 24 hr) was “No chemical degradation based on HPLC analysis or crystallization based on microscopic examination was detected”. Further, the Solubility in data set [4] (equilibrium, vehicle Capmul MCM) is on record as 58 mgA/ml; in data set [4] (equilibrium, vehicle Cremophor EL), 18 mgA/ml; in data set [4] (setting [9]), 61 mgA/ml; in data set [4] (equilibrium, vehicle Miglyol 812/Cremophor EL 80/20) it was 51 mgA/ml; in data set [4] (setting [10]) it was 208 mgA/ml; in data set [4] (equilibrium, vehicle Olive oil), 13 mgA/ml. In addition, the Solubility in data set [4] (equilibrium, vehicle Olive oil/Cremophor EL 80/20) was determined as 14 mgA/ml; in data set [4] (equilibrium, vehicle Triacetin), 239 mgA/ml; in data set [4] (preconcentrate Miglyol 812/Triacetin/Cremophor RH40/Capmul MCM 20/30/20/30 % v/v), 172 mgA/mL.
Consider `CCC(CC)CC1(C(=O)Nc2ccccc2SC(=O)C(C)C)CCCCC1` [Compound B, Propanethioic acid, 2-methyl-, S-[2-[[[1-(2-ethylbutyl)cyclohexyl]carbonyl]amino]phenyl]ester], for which, in data set [3] (preconcentrate Miglyol 812/Triacetin/Polysorbate 80/Capmul MCM 20/30/20/30 % v/v), the “Ave Droplet Size (1:100 dilution)” value was less than 5 μ. Further, the Solubility in data set [6] (Capmul MCM, oil or lipid, thermodynamic from solid, read-out: Microsolubility) was less than 100 mg/mL; in data set [6] (Crodamol GTCC, oil or lipid, thermodynamic from solid, read-out: Microsolubility), less than 20 mg/mL; in data set [6] (Crodamol GTCC/Capmul MCM/Polysorbate 80 (40/40/20), oil or lipid, thermodynamic from solid, read-out: Microsolubility), less than 100 mg/mL; in data set [6] (Olive oil, oil or lipid, thermodynamic from solid, read-out: Microsolubility) it was less than 100 mg/mL; in data set [6] (PEG 400, organic solvent or mixture, thermodynamic from solid, read-out: Microsolubility), less than 100 mg/mL; in data set [6] (oil or lipid, thermodynamic from solid, read-out: Microsolubility) it was less than 100 mg/mL. Further, the Solubility result in data set [6] (preconcentrate Miglyol 812/Triacetin/Polysorbate 80/Capmul MCM 20/30/20/30 % v/v, amorphous solid) is “≧100 mgA/mL”.
